Experimental data published in the supplement of paper PMC10307832.

Assays:
Metformin = compound: CN(C)C(=N)NC(=N)N [Metformin]; experiment: relative viability (nuclei count vs DMSO), 5 days (fraction); higher = more cells survive
Procedure, shortened: (§1)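 Five library-drug doses, separated by factors of √10, were pinned into 1536-well plates holding lung cancer cell lines after an overnight stay at 37 °C. Cells were fixed, permeabilised and Hoechst-stained in one step after 5 days without medium change, then imaged at 4×. Viability compares treated-well with vehicle-well nuclei, counted in MetaXpress, as a median across plates. Passing plates had control CV below 25% and at least one doubling.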

Apatinib = compound: N#CC1(c2ccc(NC(=O)c3cccnc3NCc3ccncc3)cc2)CCCC1 [Apatinib]; experiment: as above
Procedure, shortened: as §1

Cell Line | relative viability (Metformin; 10 µM) | relative viability (Metformin; 31.62 µM) | relative viability (Metformin; 100 µM) | relative viability (Metformin; 316.23 µM) | relative viability (Metformin; 1000 µM) | relative viability (Apatinib; 0.08 µM) | relative viability (Apatinib; 0.253 µM) | relative viability (Apatinib; 0.8 µM) | relative viability (Apatinib; 2.53 µM) | relative viability (Apatinib; 8 µM)
NCI-H2023 | 0.782 | 1.13 | 0.921 | 0.853 | 0.769 | 1.01 | 0.94 | 0.974 | 0.881 | 0.883
A549 | 0.896 | 0.976 | 0.923 | 0.849 | 0.996 | 1.02 | 1.04 | 1.02 | 0.903 | 0.909
NCI-H1648 | 0.937 | 1.11 | 1.28 | 1.08 | 1.16 | 1.18 | 0.735 | 0.722 | 0.591 | 0.498
NCI-H2347 | 0.918 | 1.05 | 0.969 | 0.944 | 1.1 | 1.03 | 0.964 | 1.03 | 0.858 | 0.933
LC-2-ad | – | 1.01 | 0.943 | 0.8 | 0.767 | 0.931 | 0.991 | 0.911 | 0.856 | 0.819
NCI-H1793 | 0.943 | 1.01 | 0.993 | 0.977 | 1.25 | 1.02 | 1.01 | 0.857 | 0.772 | 0.749
NCI-H661 | 0.801 | 0.964 | 0.911 | 0.875 | 0.893 | 0.973 | 0.908 | 0.973 | 0.929 | 0.948
NCI-H1666 | 0.938 | 1.11 | 0.971 | 1.07 | 1.09 | 1.01 | 0.958 | 0.969 | 0.997 | 0.986
SK-LU-1 | 0.997 | 0.976 | 0.967 | 0.901 | 1.01 | 1.09 | 1.08 | 0.992 | 0.949 | 0.931
HOP-62 | 0.856 | 1.02 | 1.02 | 0.917 | 1.03 | 0.964 | 0.924 | 0.985 | 0.859 | 0.922
CAL-12T | 1.02 | 1.19 | 0.938 | 1.02 | 0.968 | 1.08 | 0.99 | 1 | 0.91 | 0.828
BEN | 1.26 | 1.4 | 1.29 | 1.17 | 1.47 | 1 | 0.92 | 1.02 | 0.821 | 0.807
HCC-366 | 0.926 | 1.06 | 1.02 | 0.964 | 1.03 | 1.03 | 1 | 1.02 | 0.97 | 0.988
EMC-BAC-2 | 0.944 | 0.99 | 0.788 | 0.94 | 0.968 | 0.772 | 0.994 | 0.957 | 0.8 | 0.811
SW 900 | 1.08 | 1.15 | 0.779 | 0.933 | 1.07 | 1 | 0.87 | 0.858 | 0.615 | 0.825
COR-L 105 | 1.02 | 1.04 | 1.16 | 0.994 | 0.964 | 0.976 | 1.04 | 0.85 | 0.814 | 0.855
A-427 | 1.05 | 1.02 | 0.985 | 1.01 | 1.05 | 1.09 | 0.967 | 0.965 | 0.926 | 0.906

Cell Line | relative viability (Metformin; 10 µM) | relative viability (Metformin; 31.62 µM) | relative viability (Metformin; 100 µM) | relative viability (Metformin; 316.23 µM) | relative viability (Metformin; 1000 µM) | relative viability (Apatinib; 0.08 µM) | relative viability (Apatinib; 0.253 µM) | relative viability (Apatinib; 0.8 µM) | relative viability (Apatinib; 2.53 µM) | relative viability (Apatinib; 8 µM)
NCI-H1792 | 0.901 | 0.969 | 1.06 | 1.01 | 1.05 | 0.884 | 0.883 | 0.887 | 0.863 | 0.725
LCLC-103H | 0.848 | 1.01 | 1.07 | 1.01 | 1.02 | 0.998 | 0.956 | 0.956 | 0.912 | 0.942
NCI-H520 | 1.08 | 0.928 | 1.18 | 0.889 | 1.03 | 1.11 | 0.945 | 1.01 | 0.813 | 0.81
NCI-H3122 | 0.817 | 0.939 | 0.891 | 0.819 | 0.872 | 1 | 0.988 | 0.98 | 0.969 | 1.03
UMC-11 | 0.961 | 1.02 | 1.06 | 0.96 | 0.992 | 1.06 | 0.866 | 0.942 | 0.899 | 0.885
PC-3 [JPC-3] | 0.898 | 0.986 | 1.01 | 0.987 | 1.02 | 1.06 | 0.983 | 0.915 | 0.955 | 0.985
NCI-H1623 | 0.985 | 0.982 | 1.08 | 0.909 | 1.03 | 1 | 0.924 | 0.966 | 0.946 | 0.593
EKVX | 0.756 | 0.95 | 1.07 | 0.922 | 1.03 | 0.869 | 0.904 | 0.984 | 0.873 | 0.877
NCI-H2342 | 0.665 | 1.03 | 1.04 | 0.935 | 1.07 | 0.899 | 0.909 | 0.998 | 0.929 | 0.941
HCC-827 | – | 0.988 | 0.993 | 0.967 | 0.997 | 1.02 | 1.02 | 0.96 | 0.976 | 1.02
NCI-H1703 | 1.3 | 1.42 | 0.998 | 1.06 | 1.19 | 0.784 | 0.769 | 0.355 | 0.199 | 0.19
Calu-6 | 0.899 | 0.961 | 0.953 | 0.931 | 0.964 | 1.01 | 1.01 | 0.908 | 0.868 | 0.799
EBC-1 | 1.18 | 1.19 | 1.07 | 0.918 | 1.04 | 1 | 1.06 | 0.914 | 0.858 | 0.738
IA-LM | 0.982 | 1.16 | 1.15 | 1.07 | 1.15 | 0.955 | 0.9 | 0.994 | 0.694 | 0.535
HCC-44 | 0.938 | 0.997 | 1.02 | 0.909 | 0.956 | 0.959 | 0.941 | 0.95 | 0.913 | 0.922
NCI-H838 | 1.05 | 1.07 | 1.01 | 0.987 | 1.04 | 1.08 | 1.06 | 0.97 | 0.936 | 0.941
NCI-H2126 | 0.905 | 0.992 | 0.981 | 0.932 | 1.03 | 0.975 | 0.904 | 0.969 | 0.918 | 1.02
